Measurements from ChEMBL document CHEMBL3860067, “Investigation of the structure activity relationship of flufenamic acid derivatives at the human TRESK channel K2P18.1” (Bioorg Med Chem Lett, 2016).
Activity calls are given as the source filed them. The calls are words filed in the database; no cut-off is given here.

Key:
[1] = target: T1, Potassium channel subfamily K member 18 (Homo sapiens, UniProt Q7Z418); assay: Channel blocking activity at human TRESK channel
T1 sequence (Q7Z418 whole entry): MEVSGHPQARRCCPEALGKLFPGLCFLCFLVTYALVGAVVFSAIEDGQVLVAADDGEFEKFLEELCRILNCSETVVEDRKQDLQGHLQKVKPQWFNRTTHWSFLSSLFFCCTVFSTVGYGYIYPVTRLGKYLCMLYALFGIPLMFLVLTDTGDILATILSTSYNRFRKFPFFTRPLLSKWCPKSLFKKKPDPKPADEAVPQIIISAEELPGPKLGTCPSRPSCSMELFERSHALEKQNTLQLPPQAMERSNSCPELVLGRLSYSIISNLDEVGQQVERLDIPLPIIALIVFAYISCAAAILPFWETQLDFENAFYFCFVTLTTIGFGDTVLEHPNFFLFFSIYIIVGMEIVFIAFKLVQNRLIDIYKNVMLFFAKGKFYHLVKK

[2] = target: T1, Potassium channel subfamily K member 18; assay: Channel blocking activity at human TRESK channel expressed in HEK293 cells at 100 uM by whole cell patch clamp assay; assay type: cell-based; conditions: hek293, 100 µM
[3] = target: T2, Potassium channel subfamily K member 18 (Homo sapiens) (UniProt Q7Z418); assay: (§1) Activation of human TRESK channel relative to control
T2 sequence (whole entry): T1 sequence (Q7Z418 whole entry)

[4] = target: T1, Potassium channel subfamily K member 18; assay: as §1
[5] = target: T1, Potassium channel subfamily K member 18; assay: (§2) Activation of human TRESK channel expressed in HEK293 cells assessed as induction of channel current by whole cell patch clamp assay; assay type: cell-based
[6] = Lipophilicity, log D of the compound; assay type: physicochemical; conditions: octanol/water
[7] = target: T2, Potassium channel subfamily K member 18 (Homo sapiens); assay: as §2; assay type: cell-based
[8] = target: T2, Potassium channel subfamily K member 18 (Homo sapiens); assay: Activation of human TRESK channel expressed in HEK293 cells assessed as induction of channel current at 100 uM by whole cell patch clamp assay relative to control; assay type: cell-based

Work on `CCN(CC)CC(=O)Nc1c(C)cccc1C` [LIDOCAINE] yielded an IC50 [1] greater than 100 µM.
For `Cc1cc(C)c(Nc2ccccc2C(=O)O)c(C)c1`, the Activity [2] was “Active”.
`c1ccc(-c2nnn[nH]2)c(Nc2cccc3c2CCCC3)c1` showed an Emax [3] of 75% and an EC50 [4] of 6 µM.
In the case of `O=C(O)c1ccccc1Nc1cccc(-c2ccccc2)c1`, the Activity [2] is reported as “Active”.
With `NC(=O)c1ccccc1Nc1cccc(C(F)(F)F)c1` the Activity [2] was “Active”.
For `O=C(O)c1ccccc1Nc1cccc(Oc2ccccc2)c1`, the Activity [2] was “Active”.
In the case of `FC(F)(F)c1cccc(Nc2ccccc2-c2nnn[nH]2)c1`, the Activity [2] is reported as “Active”.
For `O=C(O)c1ccccc1Nc1cccc(C(F)(F)F)c1` [FLUFENAMIC ACID], the EC50 [5] was 474 µM, the EC50 [4] was greater than 100 µM and the logD [6] was 2.2.
In the case of `O=C(O)c1ccccc1Nc1cccc2c1CCCC2`, the Activity [2] is reported as “Active”.
`CC(C)(C)c1cccc(Nc2ccccc2-c2nnn[nH]2)c1` gave an Emax [7] of 102%, an EC50 [5] of 18.8 µM and a logD [6] of 2.7.
With `CCCCc1cccc(Nc2ccccc2C(=O)O)c1` the Activity [8] was “Active”.
With `N#Cc1ccccc1Nc1cccc(C(F)(F)F)c1` the Activity [2] was “Active”.
In the case of `CC(C)(C)c1cccc(Nc2ccccc2C(=O)O)c1`, the Emax [7] is reported as 354%, the EC50 [5] is reported as 45 µM and the logD [6] is reported as 3.2.
